Assays:
[1] = test system: TNFα production in LPS-stimulated human monocytes; test: Cot Monocyte TNFα Cell Based Assay; conditions: Homo sapiens, Monocyte, TNFα in LPS-stimulated human monocytes; read-out: EC50 TNF
Outline: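 Human monocytes (5,000 cells/well) pretreated with compound for 1 hour at 37° C (0.5% DMSO), then stimulated with 50 pg/ml LPS for 4 hours. Total TNFα measured by TR-FRET after overnight antibody incubation at room temp, expressed as percent of control between unstimulated and stimulated cells.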

[2] = target: T1, human Cot catalytic domain (30-397 amino acids) (Homo sapiens, UniProt P41279); test: High Throughput Cot Biochemical Assay (KinEASE TR-FRET); conditions: Cot biochemical HTRF (KinEASE TR-FRET) assay; read-out: IC50 HTRF
T1 construct: Purified recombinant human Cot catalytic domain (30-397 amino acids) was purchased from Cama Biosciences; purchased Cama Biosciences (so in the source)
T1 sequence (P41279 30-397): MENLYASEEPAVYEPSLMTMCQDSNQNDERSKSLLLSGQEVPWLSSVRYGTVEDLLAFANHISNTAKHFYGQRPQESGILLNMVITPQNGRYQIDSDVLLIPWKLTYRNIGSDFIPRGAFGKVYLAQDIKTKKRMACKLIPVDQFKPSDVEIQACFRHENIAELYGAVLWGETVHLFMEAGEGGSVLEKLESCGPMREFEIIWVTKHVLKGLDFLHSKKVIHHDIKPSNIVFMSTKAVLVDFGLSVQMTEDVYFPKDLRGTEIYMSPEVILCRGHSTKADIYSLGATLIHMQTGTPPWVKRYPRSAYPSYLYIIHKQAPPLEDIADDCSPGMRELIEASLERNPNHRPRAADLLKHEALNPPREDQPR
Outline: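 Recombinant human Cot catalytic domain (aa 30-397), 5 nM, with 1 μM STK3 peptide and 400 μM ATP in MOPS pH 7.0 buffer with MgOAc, DTT, BSA, NP-40, glycerol, 0.1% DMSO. Phosphorylated XL665-peptide detected by Eu-[…] antibody TR-FRET.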

Row | Structure (SMILES) | EC50 [1] | IC50 [2]
1 | Cn1ccnc1C(Nc1cc(Cl)c2ncc(C#N)c(Nc3ccc(F)c(Cl)c3)c2c1)c1ccc(F)cc1 (centres unmarked) [Example 847, 8-chloro-4-((3-chloro-4-fluorophenyl)amino)-6-(((4-fluorophenyl)(1-methyl-1H-imidazol-2-yl)methyl)amino)quinoline-3-carbonitrile] | 7860 nM | 366 nM
2 | CCN1CCC(n2cc([C@H](Nc3cc(Cl)c4ncc(C#N)c(Nc5ccc(F)c(Cl)c5)c4c3)c3ccc(F)cc3)nn2)CC1 [Example 849, (R)-8-chloro-4-((3-chloro-4-fluorophenyl)amino)-6-(((1-(1-ethylpiperidin-4-yl)-1H-1,2,3-triazol-4-yl)(4-fluorophenyl)methyl)amino) quinoline-3-carbonitrile] | 6280 nM | 687 nM
3 | Cn1cc(C(Nc2cc(Cl)c3ncc(C#N)c(Nc4ccc(F)c(Cl)c4)c3c2)c2ccc(F)cc2)cn1 (centres unmarked) [Example 853, 8-chloro-4-((3-chloro-4-fluorophenyl)amino)-6-(((4-fluorophenyl)(1-methyl-1H-pyrazol-4-yl)methyl)amino)quinoline-3-carbonitrile] | > 1000 nM | 6300 nM
4 | Cn1cnnc1C(Nc1cc(Cl)c2ncc(C#N)c(Nc3ccc(F)c(Cl)c3)c2c1)c1ccc(F)cc1 (centres unmarked) [Example 854, 8-chloro-4-((3-chloro-4-fluorophenyl)amino)-6-(((4-fluorophenyl)(4-methyl-4H-1,2,4-triazol-3-yl)methyl)amino)quinoline-3-carbonitrile] | > 10000 nM | 469 nM
5 | CCN1CCC(n2cc([C@@H](Nc3cc(Cl)c4ncc(C#N)c(Nc5ccc(F)c(Cl)c5)c4c3)c3ccc(Cl)cc3)nn2)CC1 [Example 858, (S)-8-chloro-4-((3-chloro-4-fluorophenyl)amino)-6-(((4-chlorophenyl)(1-(1-ethylpiperidin-4-yl)-1H-1,2,3-triazol-4-yl)methyl)amino)quinoline-3-carbonitrile] | 99 nM | 8 nM
6 | N#Cc1cnc2c(Cl)cc(N[C@@H](c3ccc(Cl)cc3)c3cn(C4CCNCC4)nn3)cc2c1Nc1ccc(F)c(Cl)c1 [Example 859, (S)-8-chloro-4-((3-chloro-4-fluorophenyl)amino)-6-(((4-chlorophenyl)(1-(piperidin-4-yl)-1H-1,2,3-triazol-4-yl)methyl)amino)quinoline-3-carbonitrile] | 533 nM | 12 nM
7 | Cn1cnc(C(Nc2cc(Cl)c3ncc(C#N)c(Nc4ccc(F)c(Cl)c4)c3c2)c2ccc(F)c(F)c2)c1 (centres unmarked) [Example 869, 8-chloro-4-((3-chloro-4-fluorophenyl)amino)-6-(((3,4-difluorophenyl)(1-methyl-1H-imidazol-4-yl)methyl)amino)quinoline-3-carbonitrile] | 2760 nM | 125 nM
8 | N#Cc1cnc2c(Cl)cc(NC(c3ccc(Cl)cc3)c3cn(C4CNC4)nn3)cc2c1Nc1ccc(F)c(Cl)c1 (centres unmarked) [Example 872, 6-(((1-(azetidin-3-yl)-1H-1,2,3-triazol-4-yl)(4-chlorophenyl)methyl)amino)-8-chloro-4-((3-chloro-4-fluorophenyl)amino)quinoline-3-carbonitrile] | 1310 nM | 41 nM
9 | Cn1cc(C(Nc2cc(Cl)c3ncc(C#N)c(Nc4ccc(F)c(Cl)c4)c3c2)c2ccc(Cl)cc2)nn1 (centres unmarked) [Example 881, 8-chloro-4-((3-chloro-4-fluorophenyl)amino)-6-(((4-chlorophenyl)(1-methyl-1H-1,2,3-triazol-4-yl)methyl)amino)quinoline-3-carbonitrile] | 673 nM | 39 nM
10 | Cn1cc(C(Nc2cc(Cl)c3ncc(C#N)c(Nc4ccc(F)c(Cl)c4)c3c2)c2ccc(F)cc2)nn1 (centres unmarked) [Example 882, 8-chloro-4-((3-chloro-4-fluorophenyl)amino)-6-(((4-fluorophenyl)(1-methyl-1H-1,2,3-triazol-4-yl)methyl)amino)quinoline-3-carbonitrile] | 321 nM | 20 nM

Source: patent publication US10316017B2, “COT modulators and methods of use thereof” (Gilead Sciences, Inc., priority 2015, dated 2019)
